The results in this text go back to publication PMC8879702, “Discovery of Small Molecule Activators of Chemokine Receptor CXCR4 That Improve Diabetic Wound Healing” (International Journal of Molecular Sciences, 2022).

What all share (assay type): cell-based
Assay [1] has as its target T1, CXCR4 receptor (Homo sapiens, UniProt P61073). The assay can be described thus: cAMP signaling assay, forskolin-induced, PathHunter CHO-K1 CXCR4 cells. On the procedure:
The CXCR4 receptor is a G-protein coupled receptor (GPCR) coupled to the Gi class, whose primary role is inhibition of adenylate cyclase. We tested the ability of UCUF-728 to induce a Gi-mediated cAMP-inhibitory cellular response. […] (Figure 2B).
Forskolin at final concentration of 0.5 mM was added to all wells using the TECAN dispenser. […] of PathHunter CHO-K1 CXCR4 cells (DiscoverX, Fremont, CA, USA) were added to compounds at 3000 cells/well, centrifuged at 1000 rpm for 30 s and incubated for 30 min at room temperature. DMSO (Sigma Aldrich, St. Louis, MO, USA) was normalized to 0.5%. […] of 4X Eu-cAMP tracer working solution were added to all wells, followed by addition of 5 μL of 4X Ulight-anti-cAMP working solution to all wells. Plates were centrifuged at 1000 rpm for 1 min and incubated for 1 h at room temperature, then read using CLARIOstar Plus (BMG LABTECH Inc., Cary, NC, USA) Lance CAMP protocol.

The subject of assay [2] is CEM-CCRF cells. Nature of the assay: 96 wells transwell migration assay in CEM human lymphoblast cells. From the text:
Thus, to confirm CXCR4 functional activity, we evaluated UCUF-728 in a 96 wells transwell migration assay in CEM human lymphoblast cells. […] (Supplemental Figure S7). From the analog structure–activity relationship studies and characterization studies in the chemotaxis assay, cAMP signaling and CXCR4 binding assay, we identified UCUF-728 as a potent and functionally selective CXCR4 receptor modulator.
CEM-CCRF (ATCC CCL-119) were suspended in RPMI 1640 (Corning; 10-040-CV) at 5.0 × 10^5 cells/mL and allowed to incubate in cell culture incubator at 37 °C with 5% CO2 for one hour. […] Following 1 h cell incubation and compound dispensing, 150 μL of RPMI 1640 supplemented with 2% Fetal Bovine Serum was added to each well of the compound receiver tray, and 50 μL of 5 × 10^5 cells/mL cell suspension in RPMI were added to each well of the top filter plate. Plates were reassembled and placed in a cell culture incubator at 37 °C with 5% CO2 for three hours. After incubation, Multi-Screen plate was disassembled and 100 μL of solution was collected from compound receiver tray and transferred to 96 well luminescent plate and an equal volume of ATPLite 1step luminescence reagent (Perkin Elmer, Waltham, MA, USA) was added to each well. Luminescence was measured using the CLARIOstar Plus (BMG LABTECH Inc., Cary, NC, USA).

Assay [3] deals with T1, CXCR4 receptor. Nature of the assay: primary 1536 w β-arrestin recruitment assay (CXCR4-bla U2OS cells, SDF-1α from R&D systems). Set-up: host or cells: Tango CXCR4-bla U2OS cells. The settings on record: for Emax: U2OS. On the procedure: In our effort to identify CXCR4 activators from the NIH Molecular Library Small Molecule Repository (MLSMR), we developed a primary screening assay to measure β-arrestin recruitment to the activated G-protein coupled receptor (GPCR) by a Florescence Resonance Energy Transfer (FRET) in U2OS cells, overexpressing the CXCR4 receptor engineered with a β-lactamase (bla) reporter system. CXCR4-bla cells plated in 1536 w were stimulated in the presence of 10 µM compound concentration. […] Using this approach, we successfully screened the NIH MLSMR of 370,620 compounds (Figure 1A,B) and identified 303 hits (hit rate = 0.08%). […] These compounds were graded according to activity and structure, resulting in 86 compounds that met the criteria as potential CXCR4 agonists for further characterization (Figure 1B). The workflow for high-throughput screening and this study is illustrated in Figure 1B.
Chemical stability, synthetic tractability, solubility and complete dose response and potency criteria led to the prioritization of the 5-aryl-2-cyclopropyl oxazole scaffold, represented by primary hit Compound 2 (Table 1). The early structure–activity relationship was established around the 5-aryl-2-cyclopropyl oxazole core with commercially available analogs with diverse substituents in the sulfonanilide ring of the scaffold. […] Keeping the 2-OMe substituent constant, we screened a small set of electron withdrawing and electron rich substituents at the 5-position of the anilide ring (entries 16–19). […] The analytical data for UCUF-728 is shown in Supplemental Figures S1–S4.
A general note: Activated receptors often draw arrestin, which recruitment assays turn into a signal.

Where only a bound is given, the exact number is not on record here.

T1 sequence (P61073 whole entry): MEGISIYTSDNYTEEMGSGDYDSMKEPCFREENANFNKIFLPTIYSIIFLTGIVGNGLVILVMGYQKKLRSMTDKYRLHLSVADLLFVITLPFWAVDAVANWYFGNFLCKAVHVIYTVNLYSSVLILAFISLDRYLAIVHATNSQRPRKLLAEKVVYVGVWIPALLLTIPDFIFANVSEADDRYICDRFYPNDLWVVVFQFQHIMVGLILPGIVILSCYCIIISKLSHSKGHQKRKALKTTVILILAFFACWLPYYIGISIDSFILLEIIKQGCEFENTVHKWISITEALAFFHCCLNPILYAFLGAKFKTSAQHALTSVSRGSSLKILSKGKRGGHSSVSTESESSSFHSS

Consider `c1cc(CN2CCCNCCNCCCNCC2)ccc1CN1CCCNCCNCCCNCC1` [AMD3100, reference compound], for which, in assay [1] (maximal response at 40 nM SDF-1α), the “block of SDF-1α inhibition of forskolin-induced cAMP” value is given as “dose-dependently blocked”. In addition, the IC50 in assay [2] (Homo sapiens, normalized to media only and 6nM SDF-1a, read-out: logIC50 inhibition of migration (converted)) is 0.0316 µM.
The term EC50 denotes the concentration at which the effect is half-maximal. Read a high EC50 as lower potency in that assay. Consider `O=S(=O)(Nc1ccccc1)c1ccc(-c2cnc(C3CC3)o2)cc1` [Compound 1], for which the EC50 in assay [3] was greater than 80 µM.
For orientation: Emax means the size of the effect at its maximum, as opposed to the concentration needed. In assay [3], `Cc1ccccc1NS(=O)(=O)c1ccc(-c2cnc(C3CC3)o2)cc1` [Compound 2] had an EC50 of 5.9 µM and an Emax of 27%.
In assay [3], `CCc1ccccc1NS(=O)(=O)c1ccc(-c2cnc(C3CC3)o2)cc1` [Compound 3] yielded an EC50 of 2.6 µM and an Emax of 38%.
With `COc1ccccc1NS(=O)(=O)c1ccc(-c2cnc(C3CC3)o2)cc1` [Compound 4], in assay [3], the EC50 stood at 6.1 µM and the Emax was 45%.
In assay [3], `CCOc1ccccc1NS(=O)(=O)c1ccc(-c2cnc(C3CC3)o2)cc1` [Compound 5] showed an EC50 of 1 µM and a maximal response (Emax) of 46%.
In the same order, the values of `O=S(=O)(Nc1ccccc1Cl)c1ccc(-c2cnc(C3CC3)o2)cc1` [Compound 6] are 22 µM and 35%.
In assay [3], `O=S(=O)(Nc1ccccc1F)c1ccc(-c2cnc(C3CC3)o2)cc1` [Compound 7] came in with an EC50 greater than 80 µM.
`COc1cccc(NS(=O)(=O)c2ccc(-c3cnc(C4CC4)o3)cc2)c1` [Compound 8] displayed an EC50 in assay [3] greater than 80 µM.
In assay [3], `CCOc1ccc(NS(=O)(=O)c2ccc(-c3cnc(C4CC4)o3)cc2)cc1` [Compound 9] returned an EC50 of 44.3 µM and an Emax of 38%.
In assay [3], `Cc1cccc(NS(=O)(=O)c2ccc(-c3cnc(C4CC4)o3)cc2)c1C` [Compound 10] yielded an EC50 of 1.9 µM and an Emax of 40%.
For the molecule `Cc1ccc(NS(=O)(=O)c2ccc(-c3cnc(C4CC4)o3)cc2)cc1C` [Compound 11], the EC50 in assay [3] was greater than 10 µM.
Consider `Cc1ccc(NS(=O)(=O)c2ccc(-c3cnc(C4CC4)o3)cc2)c(C)c1` [Compound 12], for which, in assay [3], the midpoint of the response, the EC50, lay at 3.4 µM and the Emax came to 38%.
For `Cc1ccc(C)c(NS(=O)(=O)c2ccc(-c3cnc(C4CC4)o3)cc2)c1` [Compound 13], in assay [3], the response was half-maximal at 0.7 µM (EC50) and the Emax was determined as 42%.
In assay [3], `Cc1cccc(C)c1NS(=O)(=O)c1ccc(-c2cnc(C3CC3)o2)cc1` [Compound 14] displayed an EC50 of 0.6 µM and a maximal response (Emax) of 45%.
In assay [3], `Cc1cc(C)cc(NS(=O)(=O)c2ccc(-c3cnc(C4CC4)o3)cc2)c1` [Compound 15] registered an EC50 of 3.1 µM and an Emax of 39%.
In assay [3], `COc1ccc(Cl)cc1NS(=O)(=O)c1ccc(-c2cnc(C3CC3)o2)cc1` [Compound 16] displayed an EC50 of 1.65 µM and an Emax of 47%.
Consider `COc1ccc(F)cc1NS(=O)(=O)c1ccc(-c2cnc(C3CC3)o2)cc1` [Compound 17], for which, in assay [3], the EC50 is 7.3 µM and the Emax stood at 42%.
Consider `COc1ccc(C)cc1NS(=O)(=O)c1ccc(-c2cnc(C3CC3)o2)cc1` [Compound 18], for which, in assay [3], it took 0.9 µM to reach a half-maximal effect (EC50) and the Emax is 48%.
For `COc1ccc(NS(=O)(=O)c2ccc(-c3cnc(C4CC4)o3)cc2)cc1OC` [Compound 20], the EC50 in assay [3] was greater than 80 µM.
In assay [3], `COc1cc(NS(=O)(=O)c2ccc(-c3cnc(C4CC4)o3)cc2)cc(OC)c1` [Compound 21] showed an EC50 of 5.6 µM and an Emax of 48%.
With SDF-1α, the “inhibition of forskolin-induced adenylate cyclase (cAMP signaling)” value in assay [1] (CHO-K1 CXCR4 overexpressed cells) was “inhibited forskolin-induced adenylate cyclase”. Further, the “induction of cell migration” value in assay [2] (compound in lower channel, 3 h) is reported as “induced migration in the typical bell-shaped curve”.
